Measured values published in patent publication US20030232851A1, “Viral treatment” (The Procter & Gamble Company, priority 1999, published 2003).
Converted amounts (≈) assume the structure as drawn. “And” between values parts separate entries of the source, which are not always exact repeats. Equal values may be shown once.

Experiments:
[1] = test system: CEMROD; experiment: CEMROD screening: toxicity values (XTT); format: cell-based, human; parameters: Toxicity Values, samples 1-3 / Toxicity Values, average: unit not given here
Procedure: After 6 days (or the experimental period) of incubation at 37° C. in a 5% carbon dioxide incubator the test plates are analyzed by staining with the tetrazolium dye XTT. […] On day 6 post-infection plates are removed from the incubator and observed. […] The results of the macroscopic observations were confirmed and enhanced by further microscopic analysis.
Phenazine methosulfate (PMS) solution is prepared at 15 mg/ml in PBS and stored in the dark at −20° C. […] Fifty microliters of XTT/PMS is added to each well of the plate and the plate is reincubated or 4 hours at 37° C. […] Percent cell reduction, percent cell viability, IC25,50, & 95 and TC25,50, & 95 can then be calculated.

[2] = test system: HEPG22.2.15; experiment: Hepatitis B test: toxicity values; format: cell-based
[3] = target: T1, HIV-1 protease (Human immunodeficiency virus type 1 group M subtype B, UniProt P04585); experiment: Protease inhibition assay (fluorometric); format: biochemical; conditions: for Protease Inhibition, sample reading: sample 1, sample 2
T1 construct: precludes use of the fluorometric HIV-1 protease assay; purchased Bachem
Procedure: Protease inhibition is evaluated using a fluorometric method. Enzyme (Bachem) is diluted to 116 μgm/ml in 50 mM NaOAC, 5 mM DTT, 2 mM EDTA, 10% glycerol (pH 5.0) and stored as 10 μl samples at −20° C., HIV protease substrates I (Molecular Probes) is diluted to a working concentration of 0.32 nmoles/μl. Enzyme (20 μl) and drug (20 μl) are added to each well of a microtiter plate as appropriate. Positive and negative controls are evaluated in parallel. Fluorescence is quantitated on Labsystems Fluroskan II using 355 nm/460 nm at 37° C. at time zero and at 30 minute intervals for 2 hours. In instances where autofluorescence precludes use of the fluorometric HIV-1 protease assay or confirmation of a result is required, an HPLC based protease assay can be employed.

[4] = test system: Cryptococcus neoformans; experiment: Anti-fungal activity (NCCLS M-27A based), Cryptococcus neoformans; format: cell-based
Procedure: It was active against cryptococcus neoformans and curvularai lunata. The cidal activity for the C. neoformans is high enough that it is clear […] against this yeast. This test was conducted using a method based upon NCCLS reference method M-27A published in 1997. Solvent, medium and growth controls were set-up with the tests. Once these were read to validate the test performance, the QC fungi were read to insure they had expected results. These steps validated the test system. DMSO was used as a drug-chemical solvent. […] The 90% cut-off is necessary for azoles, which are static and not cidal. The FMC or cidal level was determined by sub-culturing a sample from each tube showing no growth.

[5] = Table 2 duplicate study, 0.32 μg/ml
[6] = Table 2 duplicate study, 1 μg/ml
[7] = Table 2 duplicate study, 1.0 μg/ml
[8] = Table 2 duplicate study, 3.2 μg/ml
[9] = Table 2 duplicate study, 32 μg/ml
[10] = Table 2 duplicate study, 100 μg/ml

Question: What does the source list for `c1csc(-c2nc3cccnc3[nH]2)c1` [2-(2-thienyl)-imidazolo [4,5-b]pyridine]?
Answer: Toxicity Values, % cell control ([1]; Table 1, 0.32 μg/ml): 102%; Toxicity Values, average ([1]; Table 1, 0.32 μg/ml): 1.144; Toxicity Values, % cell control ([1]; Table 1, 1 μg/ml): 100.1%; Toxicity Values, average ([1]; Table 1, 1 μg/ml): 1.122; Toxicity Values, % cell control ([1]; Table 1, 1.0 μg/ml): 81.3%; Toxicity Values, average ([1]; Table 1, 1.0 μg/ml): 0.912; Toxicity Values, % cell control ([1]; Table 1, 3.2 μg/ml): 94.1%; Toxicity Values, average ([1]; Table 1, 3.2 μg/ml): 1.055; Toxicity Values, % cell control ([1]; Table 1, 32 μg/ml): 28.7%; Toxicity Values, average ([1]; Table 1, 32 μg/ml): 0.322; Toxicity Values, % cell control ([1]; Table 1, 100 μg/ml): 7.6%; Toxicity Values, average ([1]; Table 1, 100 μg/ml): 0.086; Toxicity Values, % cell control [1, 5]: 114.7%; Toxicity Values, average [1, 5]: 1.088; Toxicity Values, samples 1-3 [1, 5]: 1.189 and 1.074 and 1.000; Toxicity Values, % cell control [1, 6]: 108.4%; Toxicity Values, average [1, 6]: 1.028; Toxicity Values, samples 1-3 [1, 6]: 1.066 and 1.038 and 0.980; Toxicity Values, % cell control [1, 7]: 72.2%; Toxicity Values, average [1, 7]: 0.684; Toxicity Values, samples 1-3 [1, 7]: 0.694 and 0.726 and 0.633; Toxicity Values, % cell control [1, 8]: 98.9%; Toxicity Values, average [1, 8]: 0.938; Toxicity Values, samples 1-3 [1, 8]: 1.008 and 0.924 and 0.881; Toxicity Values, % cell control [1, 9]: 17.4%; Toxicity Values, average [1, 9]: 0.165; Toxicity Values, samples 1-3 [1, 9]: 0.183 and 0.168 and 0.145; Toxicity Values, % cell control [1, 10]: 13.5%; Toxicity Values, average [1, 10]: 0.128; Toxicity Values, samples 1-3 [1, 10]: 0.121 and 0.133 and 0.130; toxicity (in words) ([1]; at the higher concentrations): not toxic; Toxicity Values, % cell control ([2]; 0.64 μg/ml): 108.5%; Toxicity Values, mean ([2]; 0.64 μg/ml): 1.359; Toxicity Values, samples 1-3 ([2]; 0.64 μg/ml): 1.389 and 1.334 and 1.355; Toxicity Values, % cell control ([2]; 2 μg/ml): 101.1%; Toxicity Values, mean ([2]; 2 μg/ml): 1.266; Toxicity Values, samples 1-3 ([2]; 2 μg/ml): 1.121 and 1.246 and 1.432; Toxicity Values, % cell control ([2]; 6.4 μg/ml): 101.5%; Toxicity Values, mean ([2]; 6.4 μg/ml): 1.271; Toxicity Values, samples 1-3 ([2]; 6.4 μg/ml): 1.249 and 1.157 and 1.407; Toxicity Values, % cell control ([2]; 20 μg/ml): 30.7%; Toxicity Values, mean ([2]; 20 μg/ml): 0.385; Toxicity Values, samples 1-3 ([2]; 20 μg/ml): 0.404 and 0.389 and 0.361; Toxicity Values, % cell control ([2]; 64 μg/ml): 1.4%; Toxicity Values, mean ([2]; 64 μg/ml): 0.017; Toxicity Values, samples 1-3 ([2]; 64 μg/ml): 0.017 and 0.018; Toxicity Values, % cell control ([2]; 200 μg/ml): 1.4%; Toxicity Values, mean ([2]; 200 μg/ml): 0.017; Toxicity Values, samples 1-3 ([2]; 200 μg/ml): 0.018 and 0.017; TC50 ([2]; first experiment): 16.3 µg/mL (≈ 81 µM); TC50 ([2]; replicate experiment): 16.8 µg/mL (≈ 83.5 µM); Protease Inhibition, mean ([3]; 1 nM): 24.7; Protease Inhibition, sample reading ([3]; 1 nM): 27.1 and 22.4; Protease Inhibition, mean ([3]; 10 nM): 36.7; Protease Inhibition, sample reading ([3]; 10 nM): 33.2 and 40.2; Protease Inhibition, mean ([3]; 100 nM): 76.1; Protease Inhibition, sample reading ([3]; 100 nM): 75.4 and 76.8; Protease Inhibition, mean ([3]; 1000 nM): 213.8; Protease Inhibition, sample reading ([3]; 1000 nM): 219.4 and 208.2; MFC ([4]; Cryptococcus neoformans, cidal level): > 32 µg/mL; MIC ([4]; Cryptococcus neoformans, growth inhibited or reduced at least 90%): 0.03 µg/mL (≈ 0.149 µM); activity against Cryptococcus neoformans (in words) ([4]; in vitro): active
